Source: ChEMBL document CHEMBL5512692, “Colloidal Aggregation Confounds Cell-Based Covid-19 Antiviral Screens” (J Med Chem, 2024)
The source made the active and inactive calls. The rule behind the calls is not given here.

What was measured:
[1] = Aggregation property of compound in 50 mM KPi buffer at pH 7 assessed as critical aggregation concentration by DLS assay; type: physicochemical
[2] = Absorption property of compound in DMEM media at 100 to 200 uM at 500 to 700 nm by luciferase assay; type: physicochemical; conditions: dose 100-200 µM
SARS-CoV-2 [3] = assay: Antiviral activity against SARS CoV-2 spike-pseudotyped lentivirus infected in human A549-hACE2-TMPRSS2 cells assessed as inhibition of viral entry preincubated with 10 mg/ml BSA for 5 mins followed by viral infection and further incubated for 24 hrs by luciferase reporter assay; type: functional, organism-based; conditions: Severe acute respiratory syndrome coronavirus 2, A549-hACE2-TMPRSS2
Sus scrofa [4] = organism: Sus scrofa; assay: (§1) Inhibition of porcine heart MDH using oxaloacetic acid as substrate assessed as enzyme recovery by measuring residual activity at approximately IC90 preincubated for 5 mins in presence of 10 mg/ml BSA followed by enzyme addition and measured after 5 mins by absorbance based analysis relative to control; conditions: time 10.0 min
SARS-CoV-2 [5] = assay: Antiviral activity against SARS CoV-2 spike-pseudotyped lentivirus infected in human A549-hACE2-TMPRSS2 cells assessed as inhibition of viral entry incubated for 24 hrs in absence of BSA by luciferase reporter assay; type: functional, organism-based; conditions: Severe acute respiratory syndrome coronavirus 2, A549-hACE2-TMPRSS2, 24 h
[6] = Inhibition of porcine heart MDH using oxaloacetic acid as substrate preincubated for 5 mins followed by substrate and […] addition and measured for 80 sec by absorbance based analysis; parameters: species or system Sus scrofa
Sus scrofa [7] = organism: Sus scrofa; assay: as §1, with “of triton X-0.01%” for “of 10 mg/ml BSA”, “by substrate and […]” for “by enzyme”, “measured for 80 sec” for “measured after 5 mins”; conditions: time 380.0 sec
SARS-CoV-2 [8] = assay: Antiviral activity against luciferase independent SARS CoV-2 spike-pseudotyped lentivirus infected in human A549-hACE2-TMPRSS2 cells assessed as inhibition of viral entry by measuring reduction in luciferase activity incubated for 24 hrs by luciferase reporter assay; type: functional, organism-based; conditions: Severe acute respiratory syndrome coronavirus 2
[9] = Aggregation property of compound in DMEM media assessed as critical aggregation concentration by DLS assay; type: physicochemical
SARS-CoV-2 [10] = assay: Antiviral activity against SARS-CoV-2; type: functional, organism-based; conditions: Severe acute respiratory syndrome coronavirus 2
SARS-CoV-2 [11] = assay: Antiviral activity against luciferase independent SARS CoV-2 spike-pseudotyped lentivirus infected in human A549-hACE2-TMPRSS2 cells assessed as inhibition of viral entry measured after 24 hrs before centrifugation by luciferase reporter assay; type: functional, organism-based; conditions: Severe acute respiratory syndrome coronavirus 2, A549-hACE2-TMPRSS2
[12] = Cytotoxicity against human A549-hACE2-TMPRSS2 assessed as reduction in cell viability incubated for 24 hrs by MTT assay; type: toxicity, cell-based; conditions: a549-hace2-tmprss2, 24 h
SARS-CoV-2 [13] = assay: Antiviral activity against luciferase independent SARS CoV-2 spike-pseudotyped lentivirus infected in human A549-hACE2-TMPRSS2 cells assessed as inhibition of viral entry at 31.6 to 63.3 uM compound spin-down for 1 hr followed by viral infection and measured after 24 hrs by luciferase reporter assay; type: functional, organism-based; conditions: Severe acute respiratory syndrome coronavirus 2, dose 31.6-63.3 µM, time 25.0 hrs

For `C=C[C@@](C)(/C=C/c1ccc(O)cc1)CCC=C(C)C` [BAKUCHIOL], the CAC [1] was 6.2 µM, the Activity [2] was “Not Active” and the EC50 (SARS-CoV-2 [3]) was 51.5 µM. For the same compound, the Activity (Sus scrofa [4]) was 77%, the EC50 (SARS-CoV-2 [5]) was 5.35 µM and the IC50 [6] was 12 µM. For the same compound, the Activity (Sus scrofa [7]) was 111%, the Activity (SARS-CoV-2 [8]) was “Active” and the CAC [9] was 2.5 µM.
In the case of `Oc1ccc(-c2[o+]c3cc(O)cc(O)c3cc2O)cc1.[Cl-]` [PELARGONIDIN CHLORIDE], the CAC [1] is reported as 79 µM, the Activity [2] is reported as “Not Active” and the Activity (Sus scrofa [4]) is reported as 130%. For the same compound, the EC50 (SARS-CoV-2 [10]) was 50 µM, the IC50 [6] was 8.1 µM and the Activity (Sus scrofa [7]) was 83%. The CAC [9] was 56 µM.
`O=c1cc(-c2ccc(O)c(-c3c(O)cc(O)c4c(=O)cc(-c5ccc(O)cc5)oc34)c2)oc2cc(O)cc(O)c12` [AMENTOFLAVONE] gave a CAC [1] of 25 µM, an Activity (Sus scrofa [4]) of 78% and an IC50 [6] of 6.1 µM. It also gave an Activity (Sus scrofa [7]) of 93% and a CAC [9] of 100 µM.
For `O=c1c(O)c(-c2ccc(O)c(O)c2)oc2cc(O)cc(O)c12` [QUERCETIN], the CAC [1] was 62 µM, the Activity [2] was “Not Active” and the Activity (Sus scrofa [4]) was 108%. The IC50 [6] was 3.3 µM, the Activity (Sus scrofa [7]) was 61% and the CAC [9] was 100 µM.
In the case of `CC(C)C(=O)OCC(=O)[C@@]12O[C@H](C3CCCCC3)O[C@@H]1C[C@H]1[C@@H]3CCC4=CC(=O)C=C[C@]4(C)[C@H]3[C@@H](O)C[C@@]12C` [CICLESONIDE], the CAC [1] is reported as 8.1 µM, the Activity [2] is reported as “Not Active” and the Activity (Sus scrofa [4]) is reported as 57%. It also gave an EC50 (SARS-CoV-2 [10]) of 20.5 µM, an IC50 [6] of 10 µM and an Activity (Sus scrofa [7]) of 66.1%. It also gave a CAC [9] of 4.2 µM.
In the case of `Cc1cc(O)c2c(=O)c3c(O)cc(O)c4c5c(O)cc(O)c6c(=O)c7c(O)cc(C)c8c1c2c(c34)c(c78)c65` [HYPERICIN], the CAC [1] is reported as 3.3 µM, the Activity [2] is reported as “Not Active” and the Activity (Sus scrofa [4]) is reported as 99%. The EC50 (SARS-CoV-2 [10]) was 1.24 µM, the EC50 (SARS-CoV-2 [5]) was 84.4 µM and the IC50 [6] was 0.3 µM. It also gave an Activity (Sus scrofa [7]) of 90% and a CAC [9] of 3.7 µM.
In the case of `CNC(=O)c1cc(Oc2ccc(NC(=O)Nc3ccc(Cl)c(C(F)(F)F)c3)cc2)ccn1` [SORAFENIB], the EC50 (SARS-CoV-2 [3]) is reported as 21 µM, the EC50 (SARS-CoV-2 [5]) is reported as 0.41 µM and the EC50 (SARS-CoV-2 [11]) is reported as 0.27 µM. For the same compound, the Activity (SARS-CoV-2 [8]) was “Active”.
With `C[C@]12CC[C@@H]3c4ccc(O)cc4C[C@@H](CCCCCCCCC[S+]([O-])CCCC(F)(F)C(F)(F)F)[C@H]3[C@@H]1CC[C@@H]2O` (stereo partly drawn) [FULVESTRANT] the EC50 (SARS-CoV-2 [11]) was 0.19 µM and the Activity (SARS-CoV-2 [8]) was “Active”.
For `CC1(C)Cc2c(-c3ccccc3)c(-c3ccc(Cl)cc3)c(CC(=O)O)n2C1` [LICOFELONE], the CAC [1] was 54 µM, the Activity [2] was “Not Active” and the IC50 [6] was 23 µM. For the same compound, the Activity [12] was “Toxic” and the CAC [9] was 5.5 µM.
For `CC(C)=CCc1c(O)ccc(C(=O)/C=C/c2ccc(O)cc2)c1O` [ISOBAVACHALCONE], the CAC [1] was 6.1 µM, the Activity [2] was “Not Active” and the Activity (Sus scrofa [4]) was 108%. For the same compound, the IC50 [6] was 36 µM, the Activity (Sus scrofa [7]) was 109% and the Activity [12] was “Toxic”. For the same compound, the CAC [9] was 63 µM.
In the case of `CCOC(=O)c1c(CSc2ccccc2)n(C)c2cc(Br)c(O)c(CN(C)C)c12` [UMIFENOVIR], the CAC [1] is reported as 58 µM, the Activity [2] is reported as “Not Active” and the EC50 (SARS-CoV-2 [3]) is reported as 25 µM. It also gave an Activity (Sus scrofa [4]) of 43%, an EC50 (SARS-CoV-2 [5]) of 0.26 µM and an IC50 [6] of 8.6 µM. The EC50 (SARS-CoV-2 [11]) was 0.44 µM, the Activity (Sus scrofa [7]) was 58% and the Activity (SARS-CoV-2 [8]) was “Active”. For the same compound, the CAC [9] was 28 µM.
With `O=c1cc(-c2ccc(O)c(O)c2)oc2cc(O)cc(O)c12` [LUTEOLIN] the CAC [1] was 83 µM, the Activity [2] was “Not Active” and the Activity (Sus scrofa [4]) was 107%. The EC50 (SARS-CoV-2 [10]) was 10 µM, the IC50 [6] was 15 µM and the Activity (Sus scrofa [7]) was 89%. It also gave a CAC [9] of 28 µM.
For `COc1c(O)cc2oc(-c3ccccc3)cc(=O)c2c1O` [OROXYLIN A], the Activity [2] was “Not Active”, the Activity (Sus scrofa [4]) was 33% and the EC50 (SARS-CoV-2 [10]) was 20 µM. The IC50 [6] was 73 µM, the Activity (SARS-CoV-2 [13]) was “Active” and the Activity (Sus scrofa [7]) was 42%.
For `O=C(O[C@@H]1Cc2c(O)cc(O)cc2O[C@@H]1c1cc(O)c(O)c(O)c1)c1cc(O)c(O)c(O)c1` [EPIGALOCATECHIN GALLATE], the Activity (Sus scrofa [4]) was 53%, the EC50 (SARS-CoV-2 [10]) was 5.38 µM and the EC50 (SARS-CoV-2 [5]) was 35.1 µM. For the same compound, the Activity (SARS-CoV-2 [13]) was “Active” and the Activity (Sus scrofa [7]) was 63.3%.
